Test: Solubility in H2O
Settings: for Solubility in H2O: salt as labelled

SMILES | solubility (water) [µg/mL] | Solubility in H2O [µg/mL]
CN(C(=O)/C=C/c1ccoc1)[C@@H]1CC[C@@]2(O)[C@H]3Cc4ccc(O)c5c4[C@@]2(CCN3CC2CC2)[C@H]1O5.O=C(O)C(=O)O (relative stereo) [Compound 20b-oxalate, 17-Cyclopropylmethyl-3,14β-dihydroxy-4,5α-epoxy-6β-[N-methyl-trans-3-(3-furyl)acrylamido]morphinan oxalate] | 32000 | 
CN(C(=O)c1ccc(C(F)(F)F)cc1)[C@@H]1CC[C@@]2(O)[C@H]3Cc4ccc(O)c5c4[C@@]2(CCN3CC2CC2)[C@H]1O5.O=C(O)C(=O)O [13b—Oxalate, 6-β-(4′-Trifluoromethyl)-N-methylbenzamido-14-hydroxy-17-(cyclopropylmethyl)nordesmorphine oxalate] |  | 4700
CN(C(=O)c1ccc(Br)cc1)[C@H]1CC[C@@]2(O)[C@H]3Cc4ccc(O)c5c4[C@@]2(CCN3CC2CC2)[C@H]1O5.O=C(O)C(=O)O [14a—Oxalate, 6-α-(4′-Bromo)-N-methylbenzamido-14-hydroxy-17-(cyclopropylmethyl)nordesmorphine oxalate] |  | 6700
CN(C(=O)c1ccc(Br)cc1)[C@@H]1CC[C@@]2(O)[C@H]3Cc4ccc(O)c5c4[C@@]2(CCN3CC2CC2)[C@H]1O5.O=C(O)C(=O)O [14b. Oxalate, 6-β-(4′-Bromo)-N-methylbenzamido-14-hydroxy-17-(cyclopropylmethyl)nordesmorphine Oxalate] |  | 20000
CN(C(=O)c1ccc(I)cc1)[C@H]1CC[C@@]2(O)[C@H]3Cc4ccc(O)c5c4[C@@]2(CCN3CC2CC2)[C@H]1O5.O=C(O)C(=O)O [15a—Oxalate, 6-α-(4′-Iodo)-N-methylbenzamido-14-hydroxy-17-(cyclopropylmethyl)nordesmorphine oxalate] |  | 5000
CN(C(=O)c1ccc(I)cc1)[C@@H]1CC[C@@]2(O)[C@H]3Cc4ccc(O)c5c4[C@@]2(CCN3CC2CC2)[C@H]1O5.O=C(O)C(=O)O [15b—Oxalate, 6-β-(4′-Iodo)-N-methylbenzamido-14-hydroxy-17-(cyclopropylmethyl)nordesmorphine oxalate] |  | 20000
CN(C(=O)c1ccc(C(C)(C)C)cc1)[C@H]1CC[C@@]2(O)[C@H]3Cc4ccc(O)c5c4[C@@]2(CCN3CC2CC2)[C@H]1O5.O=C(O)C(=O)O [16a—Oxalate, 6-α-(4′-t-Butyl)-N-methylbenzamido-14-hydroxy-17-(cyclopropylmethyl)nordesmorphine oxalate] |  | 3300
CN(C(=O)c1ccc(Cl)cc1)[C@H]1CC[C@@]2(O)[C@H]3Cc4ccc(O)c5c4[C@@]2(CCN3CC2CC2)[C@H]1O5.O=C(O)C(=O)O [17a—Oxalate, 6-α-(4′-Chloro)-N-methylbenzamido-14-hydroxy-17-(cyclopropylmethyl)nordesmorphine oxalate] |  | 10000
CN(C(=O)c1ccc(Cl)cc1)[C@@H]1CC[C@@]2(O)[C@H]3Cc4ccc(O)c5c4[C@@]2(CCN3CC2CC2)[C@H]1O5.O=C(O)C(=O)O [17b—Oxalate, 6-β-(4′-Chloro)-N-methylbenzamido-14-hydroxy-17-(cyclopropylmethyl)nordesmorphine oxalate] |  | 6000
CN(C(=O)c1ccc(Cl)c(Cl)c1)[C@H]1CC[C@@]2(O)[C@H]3Cc4ccc(O)c5c4[C@@]2(CCN3CC2CC2)[C@H]1O5.O=C(O)C(=O)O [18a—Oxalate, 6-α-(3′,4′-Dichloro)-N-methylbenzamido-14-hydroxy-17-(cyclopropylmethyl)nordesmorphine oxalate] |  | 6700
CN(C(=O)c1ccc(Cl)c(Cl)c1)[C@@H]1CC[C@@]2(O)[C@H]3Cc4ccc(O)c5c4[C@@]2(CCN3CC2CC2)[C@H]1O5.O=C(O)C(=O)O [18b—Oxalate, 6-β-(3′,4′-Dichloro)-N-methylbenzamido-14-hydroxy-17-(cyclopropylmethyl)nordesmorphine oxalate] |  | 16000
